According to publication PMC3037362, “Small Molecule Inhibitors of Staphylococcus aureus RnpA Alter Cellular mRNA Turnover, Exhibit Antimicrobial Activity, and Attenuate Pathogenesis” (PLoS Pathogens, 2011):
pIC50: −log10 of the molar value.

Columns and labels:
RNase III = target: T1, RNase III (Escherichia coli, UniProt P0A7Y0); assay: in vitro ribonuclease activity of commercial enzyme (off-target counter-assay, data not shown); format: biochemical
T1 construct: gene rnc

[1] = target: T2, RnpA (protein component of ribonuclease P) (Staphylococcus aureus, UniProt P0A0H5); assay: RiboGreen fluorescence RNA degradation screen; agarose gel titration of spa mRNA degradation by purified RnpA; format: biochemical
T2 construct: recombinant full-length predicted open reading frame, N-terminal hexahistidine tag
Description: RiboGreen fluorescence RNA degradation screen; agarose gel titration of spa mRNA degradation by purified RnpA on RnpA (protein component of ribonuclease P) | five of these molecules were bona-fide inhibitors of RnpA-mediated RNA degradation (Figure 3B). One of these compounds, RNPA1000

T1 sequence (P0A7Y0 whole entry): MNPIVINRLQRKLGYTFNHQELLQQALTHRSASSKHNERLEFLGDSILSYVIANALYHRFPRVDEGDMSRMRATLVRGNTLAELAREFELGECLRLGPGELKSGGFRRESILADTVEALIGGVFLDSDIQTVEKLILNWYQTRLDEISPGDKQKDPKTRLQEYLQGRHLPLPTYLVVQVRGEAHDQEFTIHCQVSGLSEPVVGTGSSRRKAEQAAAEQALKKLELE
T2 sequence (P0A0H5 whole entry): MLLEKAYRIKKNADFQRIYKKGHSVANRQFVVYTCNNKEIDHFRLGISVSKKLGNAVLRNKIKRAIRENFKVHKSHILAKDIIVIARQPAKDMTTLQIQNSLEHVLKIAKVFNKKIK

What does the source list for `Cc1cc(/C=C(/C#N)C(=O)Nc2cccc(Br)c2)c(C)n1-c1ccc(C(=O)O)cc1` [RNPA1000]?
pIC50 (RNase III): 3.12 to 3.30; pIC50 [1]: 3.90 to 4.00
